Experiment [1] addresses Photoreceptor-specific nuclear receptor (Homo sapiens, UniProt Q9Y5X4). The experiment is classed as functional.
Experiment [2] deals with Peroxisome proliferator-activated receptor gamma/Nuclear receptor corepressor 2 (Homo sapiens, UniProt P37231+Q9Y618). The class given is functional.
The nature of experiment [3]: Luminescence Cell-Based Dose Response to Identify Activators of 5'UTR Stem-Loop Driven Prion Protein mRNA Translation in H4-C Neuroglioblastoma Cells. [Related pubchem assays: 1829 (Project Summary), 1814 (Primary HTS)]. The class given is functional.
Experiment [4] concerns H4. As to the kind of experiment: Luminescence Cell-Based Dose Response HTS to Identify Activators of 5'UTR Stem-Loop Driven Prion Protein mRNA Translation in H4 Neuroglioblastoma Cells. [Related pubchem assays: 1829 (Project Summary), 1814 (Primary HTS)]. Conditions: Homo sapiens. The experiment is classed as functional.
A short description of experiment [5]: Luminescence Cell-Based Dose Response to Identify Activators of Luciferase Translation or Activity in H4-C Neuroglioblastoma Cells. [Related pubchem assays: 1829 (Project Summary), 1814 (Primary HTS)]. The class given is functional.
A short description of experiment [6]: Luminescence Cell-Based Dose Confirmation to Identify Activators of 5'UTR Stem-Loop Driven Alpha-Synuclein mRNA Translation in H4 Neuroglioblastoma Cells. [Related pubchem assays: 1829 (Project Summary), 1814 (Primary HTS)]. The class given is functional.
Experiment [7] deals with HeLa. As to the kind of experiment: ATP-based viability loss in HeLa cells – cell-based, CellTiter-Glo luminescence, cherry-pick samples, cytotoxicity control for MITF activator project, dose response (AID 540259). The class given is functional. Conditions: Homo sapiens.
In experiment [8] the target is T1, DNA dC->dU-editing enzyme APOBEC-3G (Homo sapiens, UniProt Q9HC16). Briefly: Dose Response confirmation of small molecule APOBEC3G DNA Deaminase Inhibitors via a fluorescence-based single-stranded DNA deaminase assay. [Related pubchem assays (depositor defined):AID493012, AID493028]. The class given is functional.
T1 sequence (Q9HC16 whole entry): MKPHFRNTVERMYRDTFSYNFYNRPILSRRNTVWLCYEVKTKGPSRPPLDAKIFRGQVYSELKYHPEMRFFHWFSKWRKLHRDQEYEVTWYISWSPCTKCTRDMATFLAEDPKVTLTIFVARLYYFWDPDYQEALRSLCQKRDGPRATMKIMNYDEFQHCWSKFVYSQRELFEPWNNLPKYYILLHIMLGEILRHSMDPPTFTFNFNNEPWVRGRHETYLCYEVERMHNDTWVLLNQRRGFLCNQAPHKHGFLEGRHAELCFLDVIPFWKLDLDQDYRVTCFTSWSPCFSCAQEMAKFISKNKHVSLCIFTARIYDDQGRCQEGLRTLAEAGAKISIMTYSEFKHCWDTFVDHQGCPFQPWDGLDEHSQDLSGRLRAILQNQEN
Experiment [9] deals with DNA dC->dU-editing enzyme APOBEC-3A (Homo sapiens, UniProt P31941). Briefly: Dose Response confirmation of small molecule APOBEC3A DNA Deaminase Inhibitors via a fluorescence-based single-stranded DNA deaminase assay. [Related pubchem assays (depositor defined):AID493011, AID493024]. The class given is functional.
DNA dC->dU-editing enzyme APOBEC-3A, sequence (P31941 whole entry): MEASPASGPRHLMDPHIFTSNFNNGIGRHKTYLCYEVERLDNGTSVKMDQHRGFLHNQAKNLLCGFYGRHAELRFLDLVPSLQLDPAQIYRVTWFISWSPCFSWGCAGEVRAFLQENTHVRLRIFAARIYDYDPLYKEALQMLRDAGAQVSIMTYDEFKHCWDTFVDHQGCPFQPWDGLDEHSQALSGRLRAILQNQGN
The target in experiment [10] is T1, DNA dC->dU-editing enzyme APOBEC-3G. The class given is functional.
In experiment [11] the target is T2, Ubiquitin-conjugating enzyme E2 N (Homo sapiens, UniProt P61088).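 Also: Dose-response confirmation in a TR-FRET assay detecting UBC13-driven polyubiquitin chain formation, inhibition measured.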
T2 sequence (P61088 whole entry): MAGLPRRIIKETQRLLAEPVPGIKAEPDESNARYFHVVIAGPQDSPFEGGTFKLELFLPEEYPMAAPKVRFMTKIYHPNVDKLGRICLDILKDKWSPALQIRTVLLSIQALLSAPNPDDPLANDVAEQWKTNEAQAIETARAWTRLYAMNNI
The experiment is classed as functional.

Experiment [12] in a line: Trypanosoma cruzi growth suppression in host cells – NIH3T3 host cells, beta-gal luminescence, confirmation (AID 2044).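 Also: intracellular parasites grown in NIH/3T3 mouse fibroblasts as host cells; luminescent beta-galactosidase reporter signal from transgenic T. cruzi replicating inside host cells; inhibitors lower the luminescence signal.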 The class given is functional, cell-based.
Experiment [13] is described as follows: NIH3T3 cell viability loss – ATP luminescence, mouse fibroblasts, counter-screen, dose response (AID 2010).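 Also: cells exposed to compound for about 90 hours before reading.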 The class given is functional, cell-based.
Experiment [14] can be described thus: Luminescence Cell-Based Dose Retest to Confirm Inhibitors of Cancer Stem Cells. [Related pubchem assays (depositor defined):AID2717, AID2721]. The class given is functional. Conditions: Homo sapiens.
Experiment [15] relates to HEK293. As to the kind of experiment: EBV LMP1 TES2 canonical NF-kB signalling blockers – cell-based, HEK293, luciferase, cherry-pick, dose response (AID 588343). The following applies: Homo sapiens. The class given is functional.
Experiment [16] can be described thus: Luminescence Cell-Based Dose Confirmation HTS to Identify Activators of 5'UTR Stem-Loop Driven Alpha-Synuclein mRNA Translation in H4 Neuroglioblastoma Cells. [Related pubchem assays: 1829 (Project Summary), 1814 (Primary HTS)]. The experiment is classed as functional.
Experiment [17] is described as follows: Luminescence Cell-Based Dose Response HTS to Identify Activators of Luciferase Translation or Activity in H4 […] Cells. [Related pubchem assays: 1829 (Project Summary), 1814 (Primary HTS)]. The class given is functional.
In experiment [18] the target is Voltage-dependent T-type calcium channel subunit alpha-1H (Homo sapiens, UniProt O95180). The experiment is classed as functional.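 Also: channel activity triggered by adding a high calcium stimulation buffer.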
Voltage-dependent T-type calcium channel subunit alpha-1H, sequence (O95180 whole entry): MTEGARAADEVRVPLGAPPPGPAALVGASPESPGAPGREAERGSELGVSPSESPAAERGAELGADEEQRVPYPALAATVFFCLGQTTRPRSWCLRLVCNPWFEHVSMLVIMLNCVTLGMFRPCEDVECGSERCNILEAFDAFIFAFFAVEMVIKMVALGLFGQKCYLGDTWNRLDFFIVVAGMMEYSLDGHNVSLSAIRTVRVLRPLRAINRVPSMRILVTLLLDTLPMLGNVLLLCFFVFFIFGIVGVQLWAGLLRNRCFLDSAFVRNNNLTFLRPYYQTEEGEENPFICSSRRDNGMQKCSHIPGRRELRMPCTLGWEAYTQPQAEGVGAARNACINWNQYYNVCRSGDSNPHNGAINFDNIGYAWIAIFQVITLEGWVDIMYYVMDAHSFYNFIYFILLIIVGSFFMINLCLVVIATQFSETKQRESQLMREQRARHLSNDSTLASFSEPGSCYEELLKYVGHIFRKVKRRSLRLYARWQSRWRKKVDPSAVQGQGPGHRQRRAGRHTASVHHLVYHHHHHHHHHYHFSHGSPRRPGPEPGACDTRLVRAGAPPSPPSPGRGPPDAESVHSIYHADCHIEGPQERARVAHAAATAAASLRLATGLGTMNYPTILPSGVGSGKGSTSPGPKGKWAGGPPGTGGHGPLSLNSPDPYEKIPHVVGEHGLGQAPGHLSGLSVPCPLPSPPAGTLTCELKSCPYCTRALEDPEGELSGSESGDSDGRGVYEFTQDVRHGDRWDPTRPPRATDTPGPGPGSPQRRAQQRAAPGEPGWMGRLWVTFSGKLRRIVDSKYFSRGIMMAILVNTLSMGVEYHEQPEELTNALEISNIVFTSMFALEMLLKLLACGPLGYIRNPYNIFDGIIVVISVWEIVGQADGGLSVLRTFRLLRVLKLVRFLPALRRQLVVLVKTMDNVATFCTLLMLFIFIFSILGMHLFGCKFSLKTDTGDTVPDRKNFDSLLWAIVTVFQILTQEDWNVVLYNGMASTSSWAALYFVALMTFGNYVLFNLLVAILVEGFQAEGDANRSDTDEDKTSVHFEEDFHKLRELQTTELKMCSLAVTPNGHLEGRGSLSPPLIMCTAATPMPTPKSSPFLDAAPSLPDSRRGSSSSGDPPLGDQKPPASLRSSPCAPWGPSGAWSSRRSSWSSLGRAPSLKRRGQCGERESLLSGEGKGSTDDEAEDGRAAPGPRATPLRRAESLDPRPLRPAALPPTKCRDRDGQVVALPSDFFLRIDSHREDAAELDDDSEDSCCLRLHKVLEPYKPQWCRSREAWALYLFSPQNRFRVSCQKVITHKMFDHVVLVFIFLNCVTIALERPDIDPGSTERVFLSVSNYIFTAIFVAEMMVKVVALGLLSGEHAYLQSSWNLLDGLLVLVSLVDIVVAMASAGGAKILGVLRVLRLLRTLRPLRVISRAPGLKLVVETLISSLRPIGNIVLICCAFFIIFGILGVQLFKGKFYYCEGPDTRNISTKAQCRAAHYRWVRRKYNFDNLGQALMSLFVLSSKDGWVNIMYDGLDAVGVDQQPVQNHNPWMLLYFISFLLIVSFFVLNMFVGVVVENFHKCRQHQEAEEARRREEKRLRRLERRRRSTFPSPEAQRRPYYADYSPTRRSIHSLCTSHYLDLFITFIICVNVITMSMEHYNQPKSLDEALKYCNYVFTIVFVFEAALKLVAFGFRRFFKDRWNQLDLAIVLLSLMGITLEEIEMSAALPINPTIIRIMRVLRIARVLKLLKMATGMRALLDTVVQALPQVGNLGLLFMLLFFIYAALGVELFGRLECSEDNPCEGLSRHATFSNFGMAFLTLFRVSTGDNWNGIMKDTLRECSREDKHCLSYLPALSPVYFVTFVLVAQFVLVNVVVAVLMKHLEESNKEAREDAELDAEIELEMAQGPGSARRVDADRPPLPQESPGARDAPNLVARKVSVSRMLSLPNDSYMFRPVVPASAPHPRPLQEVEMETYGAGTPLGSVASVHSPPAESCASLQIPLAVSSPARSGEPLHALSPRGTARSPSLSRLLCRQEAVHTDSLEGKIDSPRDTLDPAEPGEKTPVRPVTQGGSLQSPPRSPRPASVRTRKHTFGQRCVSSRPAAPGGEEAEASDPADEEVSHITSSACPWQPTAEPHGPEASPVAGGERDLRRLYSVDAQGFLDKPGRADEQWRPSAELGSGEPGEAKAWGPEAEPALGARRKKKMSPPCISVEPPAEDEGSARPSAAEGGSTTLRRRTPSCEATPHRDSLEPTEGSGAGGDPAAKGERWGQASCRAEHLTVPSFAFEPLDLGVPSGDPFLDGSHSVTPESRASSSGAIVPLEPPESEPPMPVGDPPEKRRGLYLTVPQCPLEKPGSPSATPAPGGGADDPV
Experiment [19] can be described thus: luciferase reporter signal suppression in cells – H4 neuroglioma cells, luminescence, dose response (AID 1990). The class given is functional, cell-based.
Experiment [20] addresses T3, Luciferin 4-monooxygenase (Photinus pyralis, UniProt P08659). Briefly: Counter Screen for Luciferase-based Assay Positives. [Related pubchem assays: 620, 618, 411 ].
Experiment [21] can be described thus: Luminescence Cell-Based Dose Response HTS to Identify Inhibitors of 5'UTR Stem-Loop Driven Prion Protein mRNA Translation in H4 Neuroglioblastoma Cells. [Related pubchem assays: 1827 (Project Summary), 1813 (Primary HTS)]. The class given is functional.
Experiment [22] in a line: alpha-synuclein stem-loop luciferase translation blockers – H4 neuroglioma cells, luminescence, confirmation (AID 1988). The class given is functional, cell-based.
Experiment [23] deals with Large T antigen (Simian virus 40, UniProt P03070). The class given is functional, Betapolyomavirus macacae.
The subject of experiment [24] is HT-1080. Briefly: HT1080 cell viability loss – fluorescence readout (AID 620). Conditions: Homo sapiens. The experiment is classed as functional, cell-based.
Experiment [25] has as its target FAD-linked sulfhydryl oxidase ALR (Homo sapiens, UniProt P55789). As to the kind of experiment: ALR-catalysed DTT oxidation blockers – biochemical, H2O2 detection, luminescence, cherry-pick, dose response (AID 493248).
Experiment [26] has as its target T4, Microphthalmia-associated transcription factor (Homo sapiens, UniProt O75030).
T4 sequence (O75030 whole entry): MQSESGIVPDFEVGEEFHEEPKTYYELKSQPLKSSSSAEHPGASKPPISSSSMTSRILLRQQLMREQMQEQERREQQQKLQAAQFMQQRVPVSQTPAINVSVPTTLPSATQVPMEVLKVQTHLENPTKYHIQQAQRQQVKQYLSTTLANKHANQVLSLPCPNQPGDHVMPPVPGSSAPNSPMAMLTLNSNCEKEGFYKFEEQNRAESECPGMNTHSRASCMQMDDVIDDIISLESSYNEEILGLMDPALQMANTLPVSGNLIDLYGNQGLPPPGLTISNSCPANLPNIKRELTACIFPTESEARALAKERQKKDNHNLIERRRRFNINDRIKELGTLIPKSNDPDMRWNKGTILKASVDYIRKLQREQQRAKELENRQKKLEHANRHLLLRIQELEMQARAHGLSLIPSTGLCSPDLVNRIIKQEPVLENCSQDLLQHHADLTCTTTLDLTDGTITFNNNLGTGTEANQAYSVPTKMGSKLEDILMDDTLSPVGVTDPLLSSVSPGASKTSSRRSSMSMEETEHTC
Briefly: reducers of TRPM1 reporter luminescence, concentration series – cell-based, SK-MEL-5, cherry-picked, set 3, MITF inhibitor project, dose response (AID 493073).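 Also: SK-MEL-5 melanoma cells with luciferase driven by the MITF target TRPM1 promoter.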 The class given is functional.

Experiment [27] addresses T5, Cytochrome P450 1A2 (Homo sapiens, UniProt P05177).
T5 sequence (P05177 whole entry): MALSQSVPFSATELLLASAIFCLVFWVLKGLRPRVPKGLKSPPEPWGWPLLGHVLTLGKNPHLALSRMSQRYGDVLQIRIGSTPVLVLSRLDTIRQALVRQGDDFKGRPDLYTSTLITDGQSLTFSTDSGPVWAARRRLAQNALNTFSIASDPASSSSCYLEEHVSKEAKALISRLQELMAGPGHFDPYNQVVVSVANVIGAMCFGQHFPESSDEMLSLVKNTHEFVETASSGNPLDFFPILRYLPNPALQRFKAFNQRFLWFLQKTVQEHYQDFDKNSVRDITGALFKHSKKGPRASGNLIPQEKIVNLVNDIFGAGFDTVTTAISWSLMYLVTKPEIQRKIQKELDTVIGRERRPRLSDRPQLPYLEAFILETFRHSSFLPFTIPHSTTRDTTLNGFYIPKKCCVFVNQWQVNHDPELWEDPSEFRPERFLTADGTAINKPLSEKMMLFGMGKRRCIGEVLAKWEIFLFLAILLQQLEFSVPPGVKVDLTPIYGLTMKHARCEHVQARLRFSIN

Experiment [28] addresses Cytochrome P450 2C9 (Homo sapiens, UniProt P11712).
Experiment [29] deals with T6, Protein skinhead-1 (Caenorhabditis elegans, UniProt P34707).
T6 sequence (P34707 whole entry): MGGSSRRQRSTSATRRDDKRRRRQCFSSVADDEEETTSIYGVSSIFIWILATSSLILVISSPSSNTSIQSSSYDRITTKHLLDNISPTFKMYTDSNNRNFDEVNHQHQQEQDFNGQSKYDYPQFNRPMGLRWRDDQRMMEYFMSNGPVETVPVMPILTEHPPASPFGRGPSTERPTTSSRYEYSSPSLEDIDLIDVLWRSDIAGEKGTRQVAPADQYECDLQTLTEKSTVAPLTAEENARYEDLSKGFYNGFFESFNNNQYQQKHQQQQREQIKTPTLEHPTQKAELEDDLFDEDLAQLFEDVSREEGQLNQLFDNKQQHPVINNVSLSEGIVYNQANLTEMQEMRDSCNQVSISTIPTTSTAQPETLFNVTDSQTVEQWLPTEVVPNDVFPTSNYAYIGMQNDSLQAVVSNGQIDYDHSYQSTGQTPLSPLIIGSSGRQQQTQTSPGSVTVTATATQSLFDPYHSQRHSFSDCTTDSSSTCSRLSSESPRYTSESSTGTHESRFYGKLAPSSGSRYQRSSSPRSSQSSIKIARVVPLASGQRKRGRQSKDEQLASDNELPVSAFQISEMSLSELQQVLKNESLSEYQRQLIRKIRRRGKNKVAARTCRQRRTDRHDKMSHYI
The experiment is classed as functional.

Experiment [30] deals with T3, Luciferin 4-monooxygenase. As to the kind of experiment: inhibition of purified Photinus pyralis luciferase – biochemical, luminescence, dose response (AID 1891).
The nature of experiment [31]: Luminescence Cell-Based Dose Confirmation HTS to Identify Inhibitors of Platelet Dense Granule Release. [Related pubchem assays: 1663 (Primary HTS), 1678 (Summary of Project)]. The experiment is classed as functional.

Activity calls are given as the source filed them.

T3 sequence (P08659 whole entry): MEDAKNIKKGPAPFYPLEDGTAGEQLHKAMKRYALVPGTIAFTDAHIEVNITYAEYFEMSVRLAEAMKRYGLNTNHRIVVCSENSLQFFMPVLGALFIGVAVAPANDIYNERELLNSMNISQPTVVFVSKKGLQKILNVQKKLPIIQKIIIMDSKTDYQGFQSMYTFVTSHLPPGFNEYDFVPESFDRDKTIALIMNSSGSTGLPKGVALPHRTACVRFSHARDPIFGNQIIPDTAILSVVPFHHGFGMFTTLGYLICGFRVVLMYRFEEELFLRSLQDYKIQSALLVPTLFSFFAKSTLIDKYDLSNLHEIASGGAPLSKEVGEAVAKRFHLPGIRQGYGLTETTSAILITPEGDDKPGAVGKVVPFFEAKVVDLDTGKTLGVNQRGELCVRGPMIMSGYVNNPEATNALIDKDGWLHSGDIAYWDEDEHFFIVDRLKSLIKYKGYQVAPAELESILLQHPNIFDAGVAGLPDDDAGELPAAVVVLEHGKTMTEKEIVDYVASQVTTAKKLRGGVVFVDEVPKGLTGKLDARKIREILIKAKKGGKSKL
Photoreceptor-specific nuclear receptor, sequence (Q9Y5X4 whole entry): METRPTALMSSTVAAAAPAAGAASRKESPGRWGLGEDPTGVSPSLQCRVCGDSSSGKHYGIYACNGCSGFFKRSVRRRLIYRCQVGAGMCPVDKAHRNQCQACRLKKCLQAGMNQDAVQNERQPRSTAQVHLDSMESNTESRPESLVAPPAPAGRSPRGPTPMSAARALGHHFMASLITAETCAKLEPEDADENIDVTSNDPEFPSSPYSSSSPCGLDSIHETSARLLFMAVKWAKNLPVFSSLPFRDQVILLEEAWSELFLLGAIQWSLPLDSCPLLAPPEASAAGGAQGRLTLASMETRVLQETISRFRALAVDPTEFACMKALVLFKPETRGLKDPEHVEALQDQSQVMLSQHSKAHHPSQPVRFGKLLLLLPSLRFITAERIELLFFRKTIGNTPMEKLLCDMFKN
Cytochrome P450 2C9, sequence (P11712 whole entry): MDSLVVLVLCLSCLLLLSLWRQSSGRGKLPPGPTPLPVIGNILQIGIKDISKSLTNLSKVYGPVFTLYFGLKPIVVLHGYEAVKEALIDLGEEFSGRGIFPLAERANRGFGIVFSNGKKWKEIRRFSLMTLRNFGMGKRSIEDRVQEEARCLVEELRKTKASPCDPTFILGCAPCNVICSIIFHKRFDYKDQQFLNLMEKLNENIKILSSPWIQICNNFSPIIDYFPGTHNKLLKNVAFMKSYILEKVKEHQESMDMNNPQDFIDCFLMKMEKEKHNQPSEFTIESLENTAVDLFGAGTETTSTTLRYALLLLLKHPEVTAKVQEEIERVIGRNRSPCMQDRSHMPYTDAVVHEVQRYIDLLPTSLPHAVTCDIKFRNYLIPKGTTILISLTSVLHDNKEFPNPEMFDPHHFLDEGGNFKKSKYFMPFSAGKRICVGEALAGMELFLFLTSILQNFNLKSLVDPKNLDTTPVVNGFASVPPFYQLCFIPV
FAD-linked sulfhydryl oxidase ALR, sequence (P55789 whole entry): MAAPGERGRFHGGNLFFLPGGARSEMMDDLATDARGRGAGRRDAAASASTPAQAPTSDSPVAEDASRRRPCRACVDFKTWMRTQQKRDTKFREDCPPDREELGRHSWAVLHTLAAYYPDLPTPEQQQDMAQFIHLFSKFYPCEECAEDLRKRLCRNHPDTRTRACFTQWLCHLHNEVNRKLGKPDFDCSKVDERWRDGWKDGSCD

As to `COC(=O)CCCC[C@H]1SC[C@H]2NC(=O)N[C@]21O`, the values for the IC50 in experiment [1] and in [2] were 0.389 µM (active) and 1.92 µM (active), respectively.
For `CCC(Sc1nc(O)c(C#N)c(-c2ccccc2)n1)C(=O)Nc1cc(C)on1` (centres undefined), in that order: > 39.8 µM (not active) and 4.41 µM (active).
Regarding `Cc1cc2cc(OCc3ccccc3)ccc2n1C`, the EC50 in [3] is 0.383 µM (active); in experiment [4] it was < 0.1 µM (active); in experiment [5], 0.393 µM (active); in experiment [6], 0.217 µM (active). Moreover, in [7], the AC50 was 97.8 µM (active).
`Cc1noc(C)c1CSc1nc2cc(S(=O)(=O)N3CCOCC3)ccc2o1`: the IC50 in experiment [8] is 50.7 µM (active).
In the case of `CCSCCNC(=O)c1cc(-n2cnnc2)ccc1Cl`, the IC50 in [9] was 4.2 µM (active); in experiment [10], 4.09 µM (active).
With `CCOCCCNC(=O)c1cn(CC(C)C)c(=O)c2c1c1ccccc1n2C`, in experiment [11], the IC50 is > 20 µM (inactive).
`CCN1CCN(Cc2ccc(NC(=O)c3ccc(C)c(NC(=O)c4cc(-c5ccc(Br)cc5)[nH]n4)c3)cc2C(F)(F)F)CC1`: the EC50 is 1.53 µM (active) in experiment [12] and > 30 µM (not active) in experiment [13]. Further, the AC50 in experiment [14] was 3.4 µM (active); in [15], 0.741 µM (active). Besides, the IC50 in experiment [11] is > 20 µM (inactive).
Consider `COc1ccc(CSCC(=O)N/N=C/c2ccc(OCC(=O)N3CCCCC3)cc2)cc1`, for which the results for the IC50 in [9] and in [10] were 5.86 µM (active) and 6.1 µM (active), respectively.
Consider `CN(C)/C=C1\C(=O)N(c2ccc(Cl)cc2)CS1(=O)=O`, for which the EC50 in experiment [3] is 1.52 µM (active); in experiment [16], < 0.1 µM (active); in [17], 63.6 µM (active); in [4], > 120 µM (not active); in experiment [5], 0.648 µM (active); in experiment [6] it was 0.697 µM (active).
`CC(Sc1nnc(-c2cccs2)n1Cc1ccccc1)C(=O)NCc1ccc2c(c1)OCO2` (centres undefined): the EC50 in experiment [18] is 9.04 µM (active).
With `Nc1ccc(-c2nc3c(Cl)cc(N)cc3[nH]2)cc1`, the EC50 in experiment [19] was 9.81 µM (active); in experiment [20] it was < 0.2 µM (active); in experiment [21], 0.21 µM (active); in experiment [22] it was 7.08 µM (active); in experiment [24] it was > 50 µM (not active). Moreover, the IC50 in [23] is 9.32 µM (active). Moreover, the results for the AC50 in experiment [25] and in [26] were 0.556 µM (active) and 3.76 µM (active), respectively.
In the case of `CC(C(=O)N1c2ccccc2CCc2ccccc21)n1nnc(-c2ccc(N(C)C)cc2)n1` (centres undefined), the EC50 in [18] was 4.2 µM (active).
Take `COc1ccc(CCNC(=O)C2CCCN(Cc3nc(-c4cccc(Cl)c4)oc3C)C2)cc1OC` (centres undefined): the EC50 in experiment [12] was 0.145 µM (active); in experiment [13], > 60 µM (not active); in [18] it was 5.34 µM (active). Moreover, the AC50 in experiment [27] is 15.8 µM (inconclusive); in [28] it was 6.31 µM (inconclusive).
Regarding `O=C(COc1ccc(CO)cc1Cl)Nc1ccc(F)cc1`, the concentration for a half-maximal effect (EC50) in experiment [20] is recorded as > 100 µM (not active); in [24], > 50 µM (not active).
Take `Cc1ccc(C)c(N2CCN(C(c3ccc(N(C)C)cc3)c3nnnn3C(C)(C)C)CC2)c1` (centres undefined): in experiment [18], the EC50 is 4.2 µM (active). Also, the IC50 in experiment [29] was > 100 µM (inactive).
As to `COc1ccc(NC(=O)c2cc3ccccn3n2)cc1`, the EC50 in experiment [20] is 3.55 µM (active); in experiment [30], 31.4 µM (active); in experiment [31] it was > 112 µM (not active); in experiment [24], 29.9 µM (active).

The values above are taken from ChEMBL document CHEMBL1201862, “PubChem BioAssay data set” (2004).
